Experimental data reported in PubChem BioAssay AID248 (DTP/NCI, 2004).
Inconclusive results and toxic doses are left out. No stated cut-off is given here; in the data, active means T/C of 150% or more; inactive means T/C below 125%.

Test system: L1210 leukemia ip in BDF1 mice, survival T/C
Test: NCI In Vivo Anticancer Drug Screen. Data for tumor model L1210 Leukemia (intraperitoneal) in B6D2F1 (BDF1) mice
Conditions: endpoint: mean survival time, higher = longer survival
In short: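 Read-out is survival time, reported as the treated-group measurement over the vehicle-control measurement.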

[1] = dose: 100.0 mg/kg/injection, schedule: Q04DX003 (ip), vehicle: saline with Tween-80
[2] = dose: 200.0 mg/kg/injection, schedule: Q04DX003 (ip), vehicle: saline with Tween-80
[3] = dose: 400.0 mg/kg/injection, schedule: Q04DX003 (ip), vehicle: saline with Tween-80
[4] = dose: 100.0 mg/kg/injection, schedule: Q01DX001 (ip), vehicle: Klucel (hydroxypropylcellulose) (HPC)
[5] = dose: 200.0 mg/kg/injection, schedule: Q01DX001 (ip), vehicle: Klucel (hydroxypropylcellulose) (HPC)
[6] = dose: 100.0 mg/kg/injection, schedule: Q01DX009 (ip), vehicle: saline with Tween-80
[7] = dose: 200.0 mg/kg/injection, schedule: Q01DX009 (ip), vehicle: saline with Tween-80
[8] = dose: 400.0 mg/kg/injection, schedule: Q01DX009 (ip), vehicle: saline with Tween-80
[9] = dose: 100.0 mg/kg/injection, schedule: Q01DX009 (ip), vehicle: Klucel (hydroxypropylcellulose) (HPC)
[10] = dose: 200.0 mg/kg/injection, schedule: Q01DX009 (ip), vehicle: Klucel (hydroxypropylcellulose) (HPC)
[11] = dose: 100.0 mg/kg/injection, schedule: Q04DX003 (ip), vehicle: saline
[12] = dose: 200.0 mg/kg/injection, schedule: Q04DX003 (ip), vehicle: saline
[13] = dose: 400.0 mg/kg/injection, schedule: Q04DX003 (ip), vehicle: saline
[14] = dose: 100.0 mg/kg/injection, schedule: Q04DX003 (ip), vehicle: Klucel (hydroxypropylcellulose) (HPC)
[15] = dose: 200.0 mg/kg/injection, schedule: Q04DX003 (ip), vehicle: Klucel (hydroxypropylcellulose) (HPC)
[16] = dose: 400.0 mg/kg/injection, schedule: Q04DX003 (ip), vehicle: Klucel (hydroxypropylcellulose) (HPC)
[17] = dose: 100.0 mg/kg/injection, schedule: Q01DX001 (ip), vehicle: saline with Tween-80
[18] = dose: 200.0 mg/kg/injection, schedule: Q01DX001 (ip), vehicle: saline with Tween-80
[19] = dose: 400.0 mg/kg/injection, schedule: Q01DX001 (ip), vehicle: saline with Tween-80
[20] = dose: 200.0 mg/kg/injection, schedule: Q01DX001 (ip), vehicle: carboxymethylcellulose (CMC)
[21] = dose: 400.0 mg/kg/injection, schedule: Q01DX001 (ip), vehicle: carboxymethylcellulose (CMC)

Measured: T/C

CCCC(=O)N1CCCC(C)C1 (centres undefined)
inactive: dose: 100.0 mg/kg/injection, schedule: Q04DX002 (ip), vehicle: saline 111 % of control | dose: 200.0 mg/kg/injection, schedule: Q04DX002 (ip), vehicle: saline 107 % of control | dose: 400.0 mg/kg/injection, schedule: Q04DX002 (ip), vehicle: saline 104 % of control

CCCCN(CCCC)CC(O)c1cc(-c2cccc(I)c2)nc2c(Cl)cc(Cl)cc12 (centres undefined)
inactive: [1] 90 % of control | [2] 86 % of control | [3] 98 % of control

COc1ccc(CC/C(=N/O)c2ccccc2)cc1
inactive: dose: 50.0 mg/kg/injection, schedule: Q01DX001 (ip), vehicle: other 94 % of control | dose: 100.0 mg/kg/injection, schedule: Q01DX001 (ip), vehicle: other 100 % of control | dose: 200.0 mg/kg/injection, schedule: Q01DX001 (ip), vehicle: other 90 % of control | dose: 400.0 mg/kg/injection, schedule: Q01DX001 (ip), vehicle: other 102 % of control

O=c1cc(NCc2cccc([N+](=O)[O-])c2)[nH]c(=O)[nH]1
inactive: dose: 50.0 mg/kg/injection, schedule: Q01DX001 (ip), vehicle: Klucel (hydroxypropylcellulose) (HPC) 91 % of control | [4] 89 % of control | [5] 93 % of control

O=[N+]([O-])c1ccc2c([N+](=O)[O-])ccc3c2c1CC3
inactive: [6] 94 % of control | [7] 90 % of control | [8] 92 % of control

O=C(O)COc1cc(F)c(Cl)cc1Cl
inactive: [9] 100 % of control | [10] 90 % of control

O=C(CC(=O)c1ccccc1)CC(=O)c1ccccc1
inactive: [4] 97 % of control | [5] 100 % of control | dose: 400.0 mg/kg/injection, schedule: Q01DX001 (ip), vehicle: Klucel (hydroxypropylcellulose) (HPC) 94 % of control

CN1C(=O)c2c(Cl)c(Cl)c(Cl)c(Cl)c2C1=O
inactive: dose: 222.0 mg/kg/injection, schedule: Q01DX Z (ip), vehicle: methylcellulose (MC) 105 % of control | dose: 333.0 mg/kg/injection, schedule: Q01DX Z (ip), vehicle: methylcellulose (MC) 105 % of control | dose: 500.0 mg/kg/injection, schedule: Q01DX Z (ip), vehicle: methylcellulose (MC) 98 % of control

CN(C)/C=N/NC(=O)c1ccncc1
inactive: dose: 100.0 mg/kg/injection, schedule: Q01DX009 (ip), vehicle: saline 94 % of control | [11] 88 % of control | dose: 200.0 mg/kg/injection, schedule: Q01DX009 (ip), vehicle: saline 97 % of control | [12] 100 % of control | dose: 400.0 mg/kg/injection, schedule: Q01DX009 (ip), vehicle: saline 108 % of control | [13] 96 % of control

CN(C)CC1CCCCC1=O (centres undefined)
inactive: [6] 97 % of control | [14] 102 % of control | [11] 103 % of control | [7] 96 % of control | [15] 102 % of control | [12] 110 % of control | [16] 97 % of control | [13] 103 % of control

O=C(O)CSC(=S)SCC(=O)O
inactive: [9] 100 % of control | [14] 100 % of control | [10] 97 % of control | [15] 105 % of control | [16] 101 % of control

CC1c2[nH]c3ccccc3c2CC1C(=O)O (centres undefined)
inactive: dose: 100.0 mg/kg/injection, schedule: Q04DX002 (ip), vehicle: saline with Tween-80 97 % of control | dose: 200.0 mg/kg/injection, schedule: Q04DX002 (ip), vehicle: saline with Tween-80 91 % of control | dose: 400.0 mg/kg/injection, schedule: Q04DX002 (ip), vehicle: saline with Tween-80 100 % of control

CCN(CC)c1ccnc(SCc2ccccc2)n1
inactive: dose: 100.0 mg/kg/injection, schedule: Q01DX Z (ip), vehicle: methylcellulose (MC) 89 % of control | dose: 200.0 mg/kg/injection, schedule: Q01DX Z (ip), vehicle: methylcellulose (MC) 89 % of control

O=[N+]([O-])c1ccc(OCc2ccccc2)nc1
inactive: [6] 104 % of control | [7] 97 % of control | [8] 93 % of control

CN(C)CC/C=C1\c2ccccc2CSc2ccccc21
inactive: dose: 6.25 mg/kg/injection, schedule: Q01DX009 (ip), vehicle: saline 95 % of control | dose: 12.5 mg/kg/injection, schedule: Q01DX009 (ip), vehicle: saline 108 % of control | dose: 25.0 mg/kg/injection, schedule: Q01DX009 (ip), vehicle: saline 109 % of control | dose: 25.0 mg/kg/injection, schedule: Q04DX003 (ip), vehicle: saline 100 % of control | dose: 50.0 mg/kg/injection, schedule: Q01DX009 (ip), vehicle: saline 101 % of control | dose: 50.0 mg/kg/injection, schedule: Q04DX003 (ip), vehicle: saline 89 % of control | [11] 97 % of control

O=S(Cc1ccc(Cl)cc1)C(Cl)(Cl)c1ccc(Cl)cc1 (centres undefined)
inactive: dose: 100.0 mg/kg/injection, schedule: Q04DX002 (ip), vehicle: Klucel (hydroxypropylcellulose) (HPC) 116 % of control | dose: 200.0 mg/kg/injection, schedule: Q04DX002 (ip), vehicle: Klucel (hydroxypropylcellulose) (HPC) 116 % of control | dose: 400.0 mg/kg/injection, schedule: Q04DX002 (ip), vehicle: Klucel (hydroxypropylcellulose) (HPC) 94 % of control

OC(C(c1ccccc1)N1CCCCC1)C(O)(c1ccccc1)c1ccccc1 (centres undefined)
inactive: dose: 100.0 mg/kg/injection, schedule: Q01DX001 (ip), vehicle: saline sonified 97 % of control | dose: 200.0 mg/kg/injection, schedule: Q01DX001 (ip), vehicle: saline sonified 108 % of control | dose: 400.0 mg/kg/injection, schedule: Q01DX001 (ip), vehicle: saline sonified 93 % of control

CCOC(=S)c1cccc(S(=O)(=O)Nc2ccc(OCC)cc2)c1
inactive: [17] 105 % of control | [18] 105 % of control | [19] 108 % of control

O=c1[nH]nc(S(=O)(=O)NC2CCCCC2)c(=O)[nH]1
inactive: dose: 100.0 mg/kg/injection, schedule: Q01DX001 (ip), vehicle: carboxymethylcellulose (CMC) 101 % of control | [20] 95 % of control | [21] 110 % of control

O=C(O)CCc1cc([N+](=O)[O-])c(O)c([N+](=O)[O-])c1
inactive: [1] 96 % of control | [2] 101 % of control | [3] 99 % of control

O=C(Oc1ccncc1)c1ccccc1
inactive: [17] 92 % of control | [18] 96 % of control | [19] 103 % of control

O=C(/C=C\c1ccc(NCc2ccc(C(=O)O)cc2)cc1)CCl
inactive: dose: 25.0 mg/kg/injection, schedule: Q04DX003 (ip), vehicle: Klucel (hydroxypropylcellulose) (HPC) 100 % of control | dose: 50.0 mg/kg/injection, schedule: Q01DX001 (ip), vehicle: carboxymethylcellulose (CMC) 91 % of control | dose: 50.0 mg/kg/injection, schedule: Q04DX003 (ip), vehicle: Klucel (hydroxypropylcellulose) (HPC) 90 % of control | [14] 95 % of control | [20] 93 % of control | [21] 98 % of control

N=C(N)c1ccc(OCCCCOc2ccc(NC(=O)Nc3ccc(S(=O)(=O)F)cc3Cl)cc2)cc1
inactive: [17] 91 % of control | [18] 90 % of control

O=[N+]([O-])c1cccc(S(=O)(=O)OCn2ncc3ccc([N+](=O)[O-])cc32)c1
inactive: dose: 5.0 mg/kg/injection, schedule: Q01DX001 (ip), vehicle: saline 94 % of control | dose: 10.0 mg/kg/injection, schedule: Q01DX001 (ip), vehicle: saline 100 % of control | dose: 20.0 mg/kg/injection, schedule: Q01DX001 (ip), vehicle: saline 100 % of control | dose: 40.0 mg/kg/injection, schedule: Q01DX001 (ip), vehicle: saline 97 % of control

CCSc1nc(C(OC)OC)c(Cc2ccccc2)c(=O)[nH]1
inactive: [14] 95 % of control | [15] 89 % of control | [16] 100 % of control

N#C/C(=C\c1cccc(N)c1)c1ccccc1
inactive: [17] 100 % of control | [18] 95 % of control

COc1ccc(NC(=O)Nc2cc(Cl)ccc2OC)c(OC)c1
inactive: [9] 94 % of control | [14] 103 % of control | [10] 102 % of control | [15] 101 % of control | dose: 400.0 mg/kg/injection, schedule: Q01DX009 (ip), vehicle: Klucel (hydroxypropylcellulose) (HPC) 96 % of control | [16] 101 % of control
